Reference: patent publication US5741664A, “Subtilisin variants capable of cleaving substrates containing dibasic residues” (priority 1995, dated 1998)
Residues, ends and D or L forms follow the SMILES beside them.

Assays:
[1] = biological target: T1, KEX2 (yeast pro-hormone processing protease) (Saccharomyces cerevisiae, UniProt P13134); settings: KEX2 cleaving Boc-RVRR-MCA; Brenner and Fuller 1992; cited from earlier work
T1 sequence (P13134 114-613 limits assumed): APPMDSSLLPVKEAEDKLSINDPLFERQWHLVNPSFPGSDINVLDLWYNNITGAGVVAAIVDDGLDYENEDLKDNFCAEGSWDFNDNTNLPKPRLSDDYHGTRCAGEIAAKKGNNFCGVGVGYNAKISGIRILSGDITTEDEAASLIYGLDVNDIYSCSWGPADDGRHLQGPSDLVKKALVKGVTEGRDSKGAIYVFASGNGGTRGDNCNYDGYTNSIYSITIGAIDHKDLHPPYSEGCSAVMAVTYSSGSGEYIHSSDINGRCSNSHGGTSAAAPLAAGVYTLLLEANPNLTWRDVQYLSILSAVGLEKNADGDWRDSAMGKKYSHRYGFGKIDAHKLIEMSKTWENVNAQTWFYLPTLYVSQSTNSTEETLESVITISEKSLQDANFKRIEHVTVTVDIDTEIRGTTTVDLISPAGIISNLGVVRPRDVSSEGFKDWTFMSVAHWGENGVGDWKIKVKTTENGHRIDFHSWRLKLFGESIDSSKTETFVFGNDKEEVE

[2] = biological target: T2, subtilisin (subtilisin BPN' from Bacillus amyloliquefaciens, wild type) (Bacillus amyloliquefaciens, UniProt P00782); settings: subtilisin cleaving suc-AAPF-pna; Estell et al. 1986; cited from earlier work
T2 sequence (P00782 108-382): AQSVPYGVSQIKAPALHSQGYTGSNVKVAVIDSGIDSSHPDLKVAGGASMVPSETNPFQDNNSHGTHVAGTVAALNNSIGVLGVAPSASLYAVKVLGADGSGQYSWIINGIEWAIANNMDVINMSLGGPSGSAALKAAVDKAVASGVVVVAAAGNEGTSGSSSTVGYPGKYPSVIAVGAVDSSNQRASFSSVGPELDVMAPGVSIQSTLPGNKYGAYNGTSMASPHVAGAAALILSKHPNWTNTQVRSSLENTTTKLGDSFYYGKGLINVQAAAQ

[3] = biological target: T3, Bacillus amyloliquefaciens subtilisin BPN' variant G166D (Bacillus amyloliquefaciens, UniProt P00782, G273D); experiment: hydrolysis of p-nitroanilide tetrapeptide substrates, initial rates; type: biochemical; settings: suc-AAPX-pna series; 20 mM Tris-Cl pH 8.2, 4% DMSO, 25 C
T3 construct: made in house; host or cells: Bacillus subtilis BG2036 (secreted, purified from culture supernatant)
From the text: To probe the effects of the G166E and G166D on specificity at the P1 position we used substrates having the form suc-AAPX-pna (SEQ ID NO: 69) where X was either Lys (SEQ ID NO: 58), Arg (SEQ ID NO: 59), Phe (SEQ ID NO: 56), Met (SEQ ID NO: 60) or Gln (SEQ ID NO: 61). Whereas the wild-type enzyme preferred Phe>Met>Lys>Arg>Gln, the G166E preferred Lys~Phe>Arg~Met>Gln, and G166D preferred Lys>Phe~Arg~Met>Gln. Thus, both the acidic substitutions at position 166 caused a shift in preference for basic residues as previously reported (Wells, J. A., Powers, D. B., Bott, R. R., Graycar, T. P. and Estell, D. A. (1987a), Proc. Natl. Acad. Sci. USA 84:1219-1223).
(§1) Subtilisins were assayed by measuring the initial rates of hydrolysis of p-nitroanilide tetrapeptide substrates in 0.4 mL 20 mM Tris-Cl pH 8.2, 4 % (v/v) dimethyl sulfoxide at (25±0.2)° C. as described previously (Estell, D. A., Graycar, T. P., Miller, J. V., Powers, D. B., Burnier, J. P., Ng, P. G. and Wells, J. A. [1986] Science 233:659-663). Enzyme concentrations [E]0 were determined spectrophotometrically using E280 nm 0.1%=1.17 (Matsubara, H.; Kasper, C B.; Brown, D. M.; and Smith, E. L. (1965) J. Biol. Chem.,240:1125-1130.), and were typically 5-50 nM in reactions. Initial rates were determined for nine to twelve different substrate concentrations over the range of 0.001-2.0 mM. […]

[4] = biological target: T4, Bacillus amyloliquefaciens subtilisin BPN' variant N62D/G166D (mature enzyme SEQ ID NO: 72) (Bacillus amyloliquefaciens, UniProt P00782, G273D/N169D); experiment: as above; type: biochemical; settings: suc-AAXX-pna series; 20 mM Tris-Cl pH 8.2, 4% DMSO, 25 C
T4 construct: made in house; host or cells: Bacillus subtilis BG2036 (secreted, purified from culture supernatant)
Procedure: (§2) Despite the less than additive effects seen for the two charged substitutions in the S2 site, we decided to combine the best S2 site variant (N62D) with either of the acidic substitutions in the S1 site. The two double mutants, N62D/G166E and N62D/G166D, were analyzed with substrates having the form, suc-AAXX-pna (SEQ ID NO: 71) where XX was either KK (SEQ ID NO: 66), KR (SEQ ID NO: 67), KF (SEQ ID NO: 62), PK (SEQ ID NO: 58), PF (SEQ ID NO: 56) or AF (SEQ ID NO: 63)(FIG. 4). The wild-type preference was AF>PF~KF>KK~PK>KR, whereas the double mutants had the preference KK>KR>KF>PK~AF>PF. […]
as §1

[5] = biological target: T5, Bacillus amyloliquefaciens subtilisin BPN' variant N62D/G166E (Bacillus amyloliquefaciens, UniProt P00782, G273E/N169D); experiment: as above; type: biochemical; settings: suc-AAXX-pna series; 20 mM Tris-Cl pH 8.2, 4% DMSO, 25 C
T5 construct: made in house; host or cells: Bacillus subtilis BG2036 (secreted, purified from culture supernatant)
Procedure: as §2, §1

T5 sequence (P00782 108-382 N169D/G273E): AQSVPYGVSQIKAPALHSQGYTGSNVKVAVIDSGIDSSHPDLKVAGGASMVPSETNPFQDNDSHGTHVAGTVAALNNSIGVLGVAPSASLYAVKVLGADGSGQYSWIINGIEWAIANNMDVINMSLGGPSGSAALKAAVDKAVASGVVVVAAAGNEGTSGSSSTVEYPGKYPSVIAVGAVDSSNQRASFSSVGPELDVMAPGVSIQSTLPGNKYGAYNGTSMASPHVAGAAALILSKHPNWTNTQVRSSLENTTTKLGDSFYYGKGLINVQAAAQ
T4 sequence (P00782 108-382 N169D/G273D): as the sequence (P00782 108-382 N169D/G273E) above, with E166D counted along it
T3 sequence (P00782 108-382 G273D): as the sequence (P00782 108-382 N169D/G273E) above, with D62N, E166D counted along it

Cc1cc(=O)oc2cc(NC(=O)[C@H](CCCNC(=N)N)NC(=O)[C@H](CCCNC(=N)N)NC(=O)[C@@H](NC(=O)[C@H](CCCNC(=N)N)NC(=O)OC(C)(C)C)C(C)C)ccc12 [Boc-RVRR-MCA, N-t-butoxy carbonyl-arginine-valine-arginine-arginine-7-amido-4-methyl coumarin] (HELM PEPTIDE1{[CC(C)(C)OC(=O)[*:2]].R.V.R.R.[Cc1cc(=O)oc2cc(N[*:1])ccc12]}$$$$V2.0)
kcat/Km [1]: 1e+06 M⁻¹ s⁻¹

C[C@H](NC(=O)CCC(=O)O)C(=O)N[C@@H](C)C(=O)N1CCC[C@H]1C(=O)N[C@@H](Cc1ccccc1)C(=O)Nc1ccc([N+](=O)[O-])cc1 [suc-AAPF-pna, N-succinyl-alanine-alanine-proline-phenylalanyl-p-nitroanalide] (HELM PEPTIDE1{[O=C(O)CCC(=O)[*:2]].A.A.P.F.[O=[N+]([O-])c1ccc(N[*:1])cc1]}$$$$V2.0)
kcat/Km [2]: 300000 M⁻¹ s⁻¹

C[C@H](NC(=O)CCC(=O)O)C(=O)N[C@@H](C)C(=O)N1CCC[C@H]1C(=O)N[C@@H](CCCCN)C(=O)Nc1ccc([N+](=O)[O-])cc1 [Lys P1 substrate] (HELM PEPTIDE1{[O=C(O)CCC(=O)[*:2]].A.A.P.K.[O=[N+]([O-])c1ccc(N[*:1])cc1]}$$$$V2.0)
ratio of catalytic efficiencies (kcat/Km), Lys P1 substrate versus Phe P1 substrate [3]: about 3 times faster

C[C@H](NC(=O)CCC(=O)O)C(=O)N[C@@H](C)C(=O)N[C@@H](CCCCN)C(=O)N[C@@H](CCCCN)C(=O)Nc1ccc([N+](=O)[O-])cc1 [Lys-Lys substrate] (HELM PEPTIDE1{[O=C(O)CCC(=O)[*:2]].A.A.K.K.[O=[N+]([O-])c1ccc(N[*:1])cc1]}$$$$V2.0)
ratio of catalytic efficiencies (kcat/Km), Lys-Lys substrate versus Lys-Phe substrate [4]: 18 times faster
ratio of catalytic efficiencies (kcat/Km), Lys-Lys substrate versus Lys-Phe substrate [5]: about 8 times faster
